Tests used:
[1] = test system: L6-myotubes; assay: Measurement of intracellular cAMP levels in differentiated L6-myotubes (Biological Example 3); format: cell-based; conditions: for intracellular cAMP levels: L6-myotubes, 15 min stimulation, compared with isoprenaline, FIGS. 2a-2d
How it was run: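 Serum-starved differentiated L6 myotubes stimulated 15 min with test compound at 1×10^−5 M final (isoprenaline as reference) in HBSS with 1% BSA, 5 mM HEPES, 1 mM IBMX, pH 7.4. Cells EtOH-extracted, lysed, and intracellular cAMP measured by AlphaScreen.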

[2] = test system: C57Bl/6 mice; assay: Body weight and lean mass in mice treated with dexamethasone (Biological Example 5); format: in vivo; conditions: male C57Bl/6 mice, daily s.c. for 3 weeks, dexamethasone sodium phosphate 10 mg/kg, Compound A 47.1 μmol/kg
Method: 40 eight-week-old male C57Bl/6 mice kept on standard chow diet were grouped-caged (2-3 mice per cage) at 21° C. The mice had similar body weight and body composition and were divided into four groups (n=10) and were treated daily with subcutaneous injections for 3 weeks with either dexamethasone sodium phosphate (10 mg/kg) or Compound A (47.1 μmol/kg (corresponding to dose 10 mg/kg of the free base)), or a combination of dexamethasone and Compound A. Control mice received saline. Body weight and lean mass were measured after 6, 12 and 20 days of treatment.

[3] = target: T1, β2-adrenergic receptor (Rattus norvegicus, UniProt P10608); assay: Glucose uptake in the presence of the selective β2-adrenergic receptor antagonist ICI-118551 (Biological Example 1); format: cell-based; conditions: L6-myotubes; test compound 1×10^−5 M; different concentrations of ICI-118551; FIGS. 1a-1c
T1 construct: endogenous in cells; host or cells: L6 myoblasts differentiated into myotubes
T1 sequence (P10608 whole entry): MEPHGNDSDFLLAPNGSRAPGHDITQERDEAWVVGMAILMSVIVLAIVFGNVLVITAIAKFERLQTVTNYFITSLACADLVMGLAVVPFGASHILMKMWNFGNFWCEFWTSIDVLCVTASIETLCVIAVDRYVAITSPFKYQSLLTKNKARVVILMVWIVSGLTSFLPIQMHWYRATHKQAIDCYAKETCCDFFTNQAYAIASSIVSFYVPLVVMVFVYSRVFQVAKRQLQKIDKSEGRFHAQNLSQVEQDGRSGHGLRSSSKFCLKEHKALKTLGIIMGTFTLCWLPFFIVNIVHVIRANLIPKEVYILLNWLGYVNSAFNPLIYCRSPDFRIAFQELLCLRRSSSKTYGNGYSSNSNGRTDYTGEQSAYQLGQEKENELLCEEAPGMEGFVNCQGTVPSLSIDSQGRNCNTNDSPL
Method: L6-myoblasts were grown in Dulbecco's Modified Eagle's Medium (DMEM) containing 1 g/L glucose supplemented with 10% fetal bovine serum (FBS), 2 mM L-glutamine, 50 U/mL penicillin, 50 μg/mL streptomycin and 10 mM HEPES. Cells were plated at 1×10^5 cells per mL in 24-well plates. After reaching 90% confluence the cells were grown in medium containing 2% FBS for 7 days where upon cells differentiated into myotubes. The differentiated L6-myotubes were serum-starved overnight in medium containing 0.5% fatty-acid free BSA and stimulated with the test compound at a final concentration of 1×10^−5 M in the presence of different concentrations of the selective β2-adrenergic receptor antagonist ICI-118551. After 1 h 40 min the cells were washed with warm, glucose free medium twice and another portion of agonist was added to the glucose free medium. After another 20 min of incubation the cells were exposed to 50 nM ^3H-2-deoxyglucose for 10 min before washed in ice cold glucose free medium three times and lysed in 400 μL/well 0.2 M NaOH for 1 h at 60° C. The cell lysate was mixed with 4 ml scintillation buffer (Emulsifier Safe, Perkin Elmer) and the radioactivity was detected in a β-counter (Tri-Carb 4810TR, Perkin Elmer).

[4] = test system: L6-myotubes; assay: Glucose uptake in differentiated L6-myotubes (Biological Example 2); format: cell-based; conditions: for glucose uptake: L6-myotubes, FIGS. 2a-2d
How it was run: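 Differentiated L6 myotubes were serum-starved overnight in 0.5% fatty-acid-free BSA and then stimulated with compound or isoprenaline at 1×10^−5 M final. After 1 h 40 min cells were washed and re-dosed in glucose-free medium. Twenty minutes later, uptake of 50 nM ^3H-2-deoxyglucose over 10 min was measured by scintillation counting of NaOH lysates.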

[5] = target: T2, β2-adrenergic receptor (Homo sapiens, UniProt P07550); assay: β-arrestin 2 recruitment, Large BiT/Small BiT luciferase complementation in HEK293 cells (Biological Example 4); format: cell-based; conditions: luminescence after 31 min, compared with isoprenaline, FIGS. 3a-3c
T2 construct: expressed in transfected cells; host or cells: HEK293
T2 sequence (P07550 whole entry, species assumed): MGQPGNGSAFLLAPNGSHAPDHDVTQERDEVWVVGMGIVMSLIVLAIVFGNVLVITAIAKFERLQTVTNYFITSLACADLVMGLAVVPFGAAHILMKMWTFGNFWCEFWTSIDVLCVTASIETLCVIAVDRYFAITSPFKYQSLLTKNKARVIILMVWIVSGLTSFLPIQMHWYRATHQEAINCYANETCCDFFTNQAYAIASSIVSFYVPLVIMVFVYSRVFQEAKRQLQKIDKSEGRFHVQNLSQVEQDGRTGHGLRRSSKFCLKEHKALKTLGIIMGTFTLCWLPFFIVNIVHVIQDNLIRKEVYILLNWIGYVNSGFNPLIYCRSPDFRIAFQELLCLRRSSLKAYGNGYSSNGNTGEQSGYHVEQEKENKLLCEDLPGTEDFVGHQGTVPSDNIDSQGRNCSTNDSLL
Method: HEK293 cells are transfected with both the β2-adrenergic receptor attached with a Large BiT SNAP-tag protein, and with p-arrestin 2 attached to a Small BiT SNAP-tag protein. When cells are stimulated and the receptor recruits β-arrestin 2, the Small- and Large-BiT proteins merge, forming a functional luciferase enzyme, that in presence of furimazine generates light. After 31 min, the light is measured with a luminescence plate reader.

[6] = test system: C57Bl/6N mice; assay: Combination of Compound C and liraglutide in mice on high-fat, high-sucrose diet (Biological Example 8); format: in vivo; conditions: diet-induced obese mice; daily s.c. for 2 weeks; liraglutide 0.1 mg/kg, Compound C 5 mg/kg; FIG. 12b
Method: 2.5 Months old male C57Bl/6N mice were grouped caged (4-5 mice per cage), kept at 30° C. and fed with high-fat, high-sucrose diet (45% fat) for 5 months. The mice were divided into four groups (2-3 mice per cage) according to their fasting blood glucose levels, glucose tolerance, body weight, body fat and lean mass, and treated daily for 2 weeks, subcutaneously with either vehicle, liraglutide (0.1 mg/kg), Compound C (5 mg/kg), or a mixture of liraglutide (0.1 mg/kg) and Compound C (5 mg/kg). Food intake and body weight were measured every other day; body fat and lean mass were measured weekly.

Compound	intracellular cAMP levels [1]	body weight ([2]; FIG. 4)	lean mass ([2]; FIG. 5)	glucose uptake promoted by the compound in the presence of ICI-118551 [3]	glucose uptake [4]	β-arrestin 2 recruitment [5]	change in lean mass [6]	Emax at 10 µM ([1]; 0.25 h, intracellular cAMP, compound at 10 μM relative to isoproterenol at 10 μM) [%]	Emax at 10 µM ([4]; glucose uptake, compound at 10 μM relative to isoproterenol at 10 μM, read-out: Biological example 2 (GU)) [%]
CC(C)(C)NC[C@H](O)c1cccc(F)c1.Cl [Compound A, (R)-2-(tert-Butylamino)-1-(3-fluorophenyl)ethan-1-ol hydrochloride]	low intracellular cAMP levels	effect is reversed	effect is reversed	inhibited in a dose-dependent manner	full glucose uptake response	minimal p-arrestin 2 recruitment	–	–	–
CC(C)(C)NC[C@H](O)c1ccc(F)c(N)c1F.O=C(O)/C=C\C(=O)O [Compound C, (R)-1-(3-Amino-2,4-difluorophenyl)-2-(tert-butylamino)ethan-1-ol maleate]	low intracellular cAMP levels	–	–	inhibited in a dose-dependent manner	full glucose uptake response	minimal p-arrestin 2 recruitment	significantly lower as compared to administration of liraglutide alone	–	–
CC(C)(C)NC[C@H](O)c1cncc(F)c1.O=C(O)C(O)C(O)C(=O)O [Compound B, (R)-2-(tert-Butylamino)-1-(5-fluoropyridin-3-yl)ethan-1-ol hemi-tartrate]	low intracellular cAMP levels	–	–	inhibited in a dose-dependent manner	full glucose uptake response	minimal p-arrestin 2 recruitment	–	–	–
CC1(C)CC[C@H]([C@@H](O)c2cncc(O)c2)N1 [Compound 166, 5-{(S)-[(R)-5,5-dimethyl-2-pyrrolidinyl] hydroxymethyl}-3-pyridinol]	–	–	–	–	–	–	–	< 25	25 to 50

Reference: US20260216294A1, “BETA 2-ADRENERGIC RECEPTOR AGONISTS FOR TREATMENT OR PREVENTION OF MUSCLE WASTING” (ATROGI AB, priority 2023, published 2026)
